System: human adipocytes
Assay: Glucose entry in human adipocytes after native or stapled peptide treatment (FIG. 4D-E)
Assay type: cell-based
Conditions: native peptide, absence of insulin
From the text: FIG. 4: In vitro characterization of two peptides for their glucose absorption triggering capacity. • (A) Representative picture depicting the cellular entry assessment of the mixture of FAM-labelled stapled peptides A (SEQ ID No 9) and B (SEQ ID No 11) in human adipocytes. DIC: Differential interference contrast mode for living cell acquisition in left panel. In right panel, fluorescent detection of the FAM-labelled peptide with the labelled plasma membrane (PM). • (B) 3D images of the cellular uptake of PATAD peptides identified in FIG. 3; either peptide A (left panel) or peptide B (right panel) treated adipocyte showing the spots inside the peptide inside the adipocyte. • (C) Photographs showing absorption of 2-NBDG in absence of INS in adipocytes following treatment with a combination of the stapled peptides A and B. • (D) Quantification of intracellular glucose analogue 2-NB in absence of INS in adipocytes following the indicated peptide treatment (n=8 per group). • (E) Quantification of intracellular glucose analogue 2-NB in presence of INS in adipocytes following the indicated peptide treatment (n=8 per group). […]
Mature adipocytes were cultured in 96 well plate. […] 24 hours later, the glucose absorption capacity if the treated cells were assessed using the Glucose Uptake Colorimetric Assay kit from Bio Vision (Catalog #: K676-100). […]

## SICKGLMTKHPAKRLGCGPEG (native or hydrocarbon-stapled; listed as Homo sapiens) [peptide B, PATAD peptide from human αPKC, tested native and stapled]
  entry of glucose into the adipocyte: significant entry of glucose
